Data taken from patent US20230277591A1 (JULIUS-MAXIMILIANS-UNIVERSITÄT WÜRZBURG, priority 2017, published 2023).
“Also recorded” adds a separate entry of the source.

Key:
[1] = system: MOLM-13 AML cells; assay: MOLM-13 xenograft model of AML in NSG mice; format: in vivo, mouse
Experimental: (§1) All experiments were approved by the Institutional Animal Care and Use Committees of the participating institutions. NOD.Cg-Prkdc^scid Il2rg^tm1Wjl/SzJ (NSG) mice (female, 6-8 week old) were purchased from Charles River or bred in-house. Mice were inoculated with 1×10^6 ffluc_GFP^+ MOLM-13 AML cells by tail vein injection on day 0, and received a single dose of 5×10^6 T cells (in 200 µL of PBS/0.5% FCS) by tail vein injection on day 7. Crenolanib [15 mg/kg; 200 µL of 30% glycerol formal (Sigma Aldrich, Munich, Germany)] was administered intraperitoneally (i.p.) Monday-Friday for 3 consecutive weeks. AML progression/regression was assessed by serial bioluminescence imaging following i.p. administration of D-luciferin substrate (0.3 mg/g body weight) (Biosynth, Staad, Switzerland) using an IVIS Lumina imaging system (Perkin Elmer, Waltham, Massachusetts). Data was analyzed using Living Image software (Perkin Elmer).
as §1, with “Crenolanib [15 mg/kg; 200 µL of 30% glycerol formal (Sigma Aldrich, Munich, Germany)] was administered intraperitoneally (i.p.) Monday-Friday for 3 consecutive weeks.” left out

[2] = system: MOLM-13 AML cells; assay: Flow cytometric analysis of surface expression (FLT3, CD33, CD123) after FLT3 inhibitor treatment, MOLM-13; format: cell-based, human; details: for time to decrease of FLT3 expression to baseline levels after withdrawal of drug: MOLM-13, midostaurin: baseline or slightly below baseline
Experimental: (§2) Cell surface expression of FLT3 (CD135) was analyzed using a conjugated mouse-anti-human-FLT3 mAb (clone 4G8, BD Pharmagin, BD Biosciences, Germany) and mouse IgG1 isotype control (BD Pharmagin). In brief, 1×10^6 cells were washed, resuspended in 100 µL PBS/0.5% fetal calf serum and stained with 5 µL of anti-FLT3 mAb or isotype for 30 minutes at 4° C.
A complete medium change was performed every 7 days, MOLM-13 cells adjusted to 1×10^6/mL medium and 2 mL of this cell suspension plated per well in […] (Costar, Corning, NJ). After 2-3 weeks of culture with 10 nM midostaurine, MOLM-13 cells were exposed to exponentially increasing concentration of midostaurine for next 8-10 weeks to reach 50 nM midostaurin.

[3] = system: MV4;11 AML cells; assay: Flow cytometric analysis of surface expression after FLT3 inhibitor treatment, MV4;11; format: cell-based, human
Experimental: as §2

[4] = system: THP-1 AML cells; assay: Flow cytometric analysis of FLT3 expression after FLT3 inhibitor treatment, THP-1; format: cell-based, human; details: THP-1, wild-type FLT3
Experimental: as §2

[5] = system: K562 erythro-myeloid leukemia; assay: Flow cytometric analysis of FLT3 expression after FLT3 inhibitor treatment, K562; format: cell-based, human; details: K562, wild-type FLT3
Experimental: as §2

[6] = system: JeKo-1 mantle cell lymphoma; assay: Flow cytometric analysis of FLT3 expression after FLT3 inhibitor treatment, JeKo-1; format: cell-based, human; details: JeKo-1, wild-type FLT3
Experimental: as §2

[7] = system: FLT3 CAR-T cells
[8] = system: MV4;11 AML cells; assay: Antibody-dependent cellular cytotoxicity (ADCC) assay; format: cell-based, human; details: mAb 5000 ng/mL, PBMC 50:1, 24 h
Experimental: MV4;11 cells were plated at a concentration of 1×10^6/mL in 1 mL per well in 24-well plates (Costar, Corning, NJ).
MV4;11 AML cells transduced with firefly luciferase (ffluc) were utilized for ADCC assays. MV4;11 AML cells were pre-treated with FLT3 inhibitors for 7 days or were left untreated. Target cells were co-incubated with healthy donor derived PBMCs at an effector-to-target ratio of 50:1 in triplicate wells of 96-well flat-bottom plates in the presence of solvent control, IgG1 isotype control (5000 ng/mL) or anti-FLT3 BV10 mAb (5000 ng/mL) (Biolegend, London, UK). ADCC was determined in a bioluminescence-based assay after 24 hours^40. Luciferin substrate was added to the co-culture and the decrease in luminescence signal was measured using a luminometer (Tecan, Männedorf, Switzerland). The percentage of viable cells was calculated using the following formula: % viability = bioluminescence signal in the presence of effector cells and BV10 mAb (with or without FLT3 inhibitor pre-treatment) × 100 / bioluminescence signal in the control condition.

[9] = 4G8 CAR (Example 1), crenolanib 15 mg/kg i.p.

## CC1(COc2ccc3c(c2)ncn3-c2ccc3cccc(N4CCC(N)CC4)c3n2)COC1 [crenolanib]
[1]; 4G8 CAR (Example 1), 5×10^6 T cells day 7, crenolanib 15 mg/kg i.p., n=8 per group
  overall response rate: 0%
[1]; [9]
  AML cells in peripheral blood, bone marrow and spleen at experiment endpoint: high degree of leukemia infiltration
  antileukemia efficacy: only a minute antileukemia effect
[1]; crenolanib monotherapy 15 mg/kg i.p.
  FLT3 on MOLM-13 cells recovered from peripheral blood and bone marrow at experiment endpoint: uniformly and strongly upregulated
[2]; 10 nM midostaurin 2-3 weeks, 10 nM crenolanib 5 days, 1 nM quizartinib 5 days, p < 0.05
  FLT3 surface protein (MFI) compared to MOLM-13native: significantly higher levels
[2]
  time to decrease of FLT3 expression to baseline levels after withdrawal of drug: ≤ 2 days
[2]; MOLM-13 after withdrawal
  FLT3 expression upon re-exposure to the drug: increased again
[2]; inhibitor-treated vs native
  CD33 expression on MOLM-13: not affected
  CD123 expression on MOLM-13: not affected
[3]; MV4;11 (FLT3-ITD+/+)
  FLT3 expression upon exposure: increase
[3]; inhibitor-treated
  CD33 expression on MV4;11: not affected
  CD123 expression on MV4;11: not affected
[4]
  increase in FLT3 expression upon exposure: did not occur
[5]
  increase in FLT3 expression upon exposure: did not occur
[6]
  increase in FLT3 expression upon exposure: did not occur
[7]
  effect of the drug per se on (viability and) function of FLT3 CAR-T cells: not affected; also recorded: did not affect

## CO[C@@H]1[C@H](N(C)C(=O)c2ccccc2)C[C@H]2O[C@]1(C)n1c3ccccc3c3c4c(c5c6ccccc6n2c5c31)C(=O)NC4 [midostaurin]
[1]; BV10 CAR (Example 3), midostaurin experiment, BL day 7 to day 11, n=4 per group
  mice with leukemia reduction (response rate): 0%
[1]; midostaurin 1 mg/kg i.p., bone marrow MOLM-13
  MFI of FLT3 higher, mouse with lowest FLT3 expression vs mouse without drug: 30%
[2]
  time to decrease of FLT3 expression to baseline levels after withdrawal of drug: ≤ 2 days
[7]
  effect of the drug per se on (viability and) function of FLT3 CAR-T cells: not affected; also recorded: did not affect

B1: BV10 mAb: anti-FLT3 monoclonal antibody BV10 (Biolegend) used in ADCC assay (antibody, V domains shown)
VH: QVQLKQSGPGLVQPSQSLSITCTVSGFSLTNYGLHWVRQSPGKGLEWLGVIWSGGSTDYNAAFISRLSISKDNSKSQVFFKMNSLQADDTAIYYCARKGGIYYANHYYAMDYWGQGTSVTVSS
VL: DIVMTQSPSSLSVSAGEKVTMSCKSSQSLLNSGNQKNYMAWYQQKPGQPPKLLIYGASTRESGVPDRFTGSGSGTDFTLTISSVQAEDLAVYYCQNDHSYPLTFGAGTKLELKR
[8]; crenolanib-treated MV4;11 (10 nM, 7 days)
  MV4;11 cells eliminated (ADCC): 39%
[8]; midostaurin-treated MV4;11 (50 nM, 7 days)
  MV4;11 cells eliminated (ADCC): 26%
[8]; quizartinib-treated MV4;11 (1 nM, 7 days)
  MV4;11 cells eliminated (ADCC): 46%
[8]; without FLT3 inhibitor pre-treatment
  MV4;11 cells eliminated (ADCC): 13%
